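Compound exposure: 48 hours, 5 concentrations, 96-well plates. GI50 = concentration required for 50% inhibition of growth.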 Calls of active or inactive are those of the source. Rule as the data show it: active = GI50 up to about 1.1 µM and inactive = higher.
Columns and labels:
Experiment in all cases: inhibition of tumour cell growth, NCI panel, 48 h
786-0 = tested on: 786-0
A498 = tested on: A498
ACHN = tested on: ACHN
COLO 205 = tested on: COLO 205
HCT-15 = tested on: HCT-15
HL-60 = tested on: HL-60
HOP-92 = tested on: HOP-92
KM12 = tested on: KM12
LOX IMVI = tested on: LOX IMVI
Malme-3M = tested on: Malme-3M
NCI-H460 = tested on: NCI-H460
OVCAR-4 = tested on: OVCAR-4
RXF 393 = tested on: RXF 393
SF-295 = tested on: SF-295
SK-MEL-2 = tested on: SK-MEL-2
SK-OV-3 = tested on: SK-OV-3
SN12C = tested on: SN12C
SNB-19 = tested on: SNB-19
SNB-75 = tested on: SNB-75
UO-31 = tested on: UO-31

For `Cc1ccc2c(c1)Sc1ccc(/N=N/N(C)C)cc1N2C`, the GI50 (786-0) was > 100 µM (inactive), the GI50 (A498) was > 100 µM (inactive) and the GI50 (ACHN) was > 100 µM (inactive). For the same compound, the GI50 (COLO 205) was 78.9 µM (inactive), the GI50 (HCT-15) was over 100 µM and the GI50 (HL-60) was 64.6 µM (inactive). The GI50 (HOP-92) was 48.5 µM (inactive), the GI50 (KM12) was 48.8 µM (inactive) and the GI50 (LOX IMVI) was 35.8 µM (inactive). The GI50 (Malme-3M) was > 100 µM (inactive), the GI50 (NCI-H460) was 54.7 µM (inactive) and the GI50 (OVCAR-4) was > 100 µM (inactive). For the same compound, the GI50 (RXF 393) was > 100 µM (inactive), the GI50 (SF-295) was > 100 µM (inactive) and the GI50 (SK-MEL-2) was > 100 µM (inactive). For the same compound, the GI50 (SK-OV-3) was > 100 µM (inactive), the GI50 (SN12C) was > 100 µM (inactive) and the GI50 (SNB-19) was > 100 µM (inactive). The GI50 (SNB-75) was > 100 µM (inactive) and the GI50 (UO-31) was > 100 µM (inactive).
With `CN(C)c1ccc(/C=C2\C[N+](C)(C)C/C(=C\c3ccc(N(C)C)cc3)C2=O)cc1` the GI50 (786-0) was 30.7 µM (inactive), the GI50 (A498) was > 100 µM (inactive) and the GI50 (ACHN) was 70.5 µM (inactive). For the same compound, the GI50 (COLO 205) was 2.61 µM (inactive), the GI50 (HCT-15) was over 100 µM and the GI50 (HL-60) was 2.47 µM (inactive). The GI50 (HOP-92) was 19.4 µM (inactive), the GI50 (KM12) was 6.14 µM (inactive) and the GI50 (LOX IMVI) was 14.9 µM (inactive). For the same compound, the GI50 (Malme-3M) was 22.1 µM (inactive), the GI50 (NCI-H460) was 13.6 µM (inactive) and the GI50 (OVCAR-4) was 21.5 µM (inactive). The GI50 (RXF 393) was > 48.2 µM (inactive), the GI50 (SF-295) was 31.6 µM (inactive) and the GI50 (SK-MEL-2) was 14.9 µM (inactive). For the same compound, the GI50 (SK-OV-3) was 26.7 µM (inactive), the GI50 (SN12C) was 20.5 µM (inactive) and the GI50 (SNB-19) was 17.5 µM (inactive). For the same compound, the GI50 (SNB-75) was 17.1 µM (inactive) and the GI50 (UO-31) was > 100 µM (inactive).
With `CCCCCCCCCCCOCCC1C(C(C)OCCN2CCCC2)OC2OC(C)(C)OC21` (stereo not given) the GI50 (786-0) was 2.62 µM (inactive), the GI50 (A498) was 13 µM (inactive) and the GI50 (ACHN) was 4.63 µM (inactive). For the same compound, the GI50 (COLO 205) was 1.92 µM (inactive), the GI50 (HCT-15) was 2.04 µM and the GI50 (HL-60) was 1.11 µM (active). For the same compound, the GI50 (HOP-92) was 1.82 µM (inactive), the GI50 (KM12) was 0.681 µM (active) and the GI50 (LOX IMVI) was 1.46 µM (inactive). For the same compound, the GI50 (Malme-3M) was 1.6 µM (inactive), the GI50 (NCI-H460) was 2.07 µM (inactive) and the GI50 (OVCAR-4) was 3.98 µM (inactive). For the same compound, the GI50 (RXF 393) was 2.39 µM (inactive), the GI50 (SF-295) was 2.32 µM (inactive) and the GI50 (SK-MEL-2) was 1.76 µM (inactive). For the same compound, the GI50 (SK-OV-3) was 4.24 µM (inactive), the GI50 (SN12C) was 2.53 µM (inactive) and the GI50 (SNB-19) was 5.56 µM (inactive). The GI50 (SNB-75) was 2.47 µM (inactive) and the GI50 (UO-31) was 2.51 µM (inactive).
With `CCOC(=O)c1cc2cc(Cc3ccc4[nH]c(C(=O)OCC)cc4c3)ccc2[nH]1` the GI50 (786-0) was 2.86 µM (inactive), the GI50 (A498) was 17.3 µM (inactive) and the GI50 (ACHN) was 14.5 µM (inactive). For the same compound, the GI50 (COLO 205) was 47.3 µM (inactive), the GI50 (HCT-15) was over 100 µM and the GI50 (HL-60) was 9.35 µM (inactive). For the same compound, the GI50 (HOP-92) was 12.3 µM (inactive), the GI50 (KM12) was 23.7 µM (inactive) and the GI50 (LOX IMVI) was 38.7 µM (inactive). For the same compound, the GI50 (Malme-3M) was 37.1 µM (inactive), the GI50 (NCI-H460) was 24.1 µM (inactive) and the GI50 (OVCAR-4) was 6.7 µM (inactive). For the same compound, the GI50 (RXF 393) was 9.18 µM (inactive), the GI50 (SF-295) was 17.5 µM (inactive) and the GI50 (SK-MEL-2) was 26.7 µM (inactive). For the same compound, the GI50 (SK-OV-3) was 13.6 µM (inactive), the GI50 (SN12C) was 23.7 µM (inactive) and the GI50 (SNB-19) was 13 µM (inactive). For the same compound, the GI50 (SNB-75) was 12.2 µM (inactive) and the GI50 (UO-31) was 59 µM (inactive).
With `CN(C)Cc1cc(C(C)(C)C)ccc1-c1ccc(C(C)(C)C)cc1CN(C)C` the GI50 (786-0) was > 100 µM (inactive), the GI50 (A498) was 75.3 µM (inactive) and the GI50 (ACHN) was > 100 µM (inactive). The GI50 (COLO 205) was 64.3 µM (inactive), the GI50 (HCT-15) was over 100 µM and the GI50 (HL-60) was > 100 µM (inactive). The GI50 (HOP-92) was > 100 µM (inactive), the GI50 (KM12) was > 100 µM (inactive) and the GI50 (LOX IMVI) was > 100 µM (inactive). For the same compound, the GI50 (Malme-3M) was 51.9 µM (inactive), the GI50 (NCI-H460) was 96.8 µM (inactive) and the GI50 (OVCAR-4) was > 100 µM (inactive). The GI50 (RXF 393) was > 100 µM (inactive), the GI50 (SF-295) was > 100 µM (inactive) and the GI50 (SK-MEL-2) was > 100 µM (inactive). The GI50 (SK-OV-3) was > 100 µM (inactive), the GI50 (SN12C) was > 100 µM (inactive) and the GI50 (SNB-19) was > 100 µM (inactive). The GI50 (SNB-75) was 88.1 µM (inactive) and the GI50 (UO-31) was 81.3 µM (inactive).
`CC(=O)OC1=CC(n2cc(F)c(=O)[nH]c2=O)OC(C)C1=O` (stereo not given) was tested, and the GI50 (786-0) was 26.4 µM (inactive), the GI50 (A498) was 10.4 µM (inactive) and the GI50 (ACHN) was 18.4 µM (inactive). For the same compound, the GI50 (COLO 205) was 15.3 µM (inactive), the GI50 (HCT-15) was 8.95 µM and the GI50 (HL-60) was 21.4 µM (inactive). The GI50 (HOP-92) was > 33.2 µM (inactive), the GI50 (KM12) was 22.8 µM (inactive) and the GI50 (LOX IMVI) was 14.6 µM (inactive). For the same compound, the GI50 (Malme-3M) was 19.6 µM (inactive), the GI50 (NCI-H460) was 4.59 µM (inactive) and the GI50 (OVCAR-4) was > 82.2 µM (inactive). For the same compound, the GI50 (RXF 393) was 55.3 µM (inactive), the GI50 (SF-295) was 48.9 µM (inactive) and the GI50 (SK-MEL-2) was > 100 µM (inactive). The GI50 (SK-OV-3) was 99.1 µM (inactive), the GI50 (SN12C) was 67.8 µM (inactive) and the GI50 (SNB-19) was 61.9 µM (inactive). For the same compound, the GI50 (SNB-75) was 51.1 µM (inactive) and the GI50 (UO-31) was 13.5 µM (inactive).
For `COC(=O)CSc1cc(Cl)c(C)cc1S(=O)(=O)Nc1n[nH]c(N)n1`, the GI50 (786-0) was > 10 µM (inactive), the GI50 (A498) was > 10 µM (inactive) and the GI50 (ACHN) was > 10 µM (inactive). The GI50 (COLO 205) was > 10 µM (inactive), the GI50 (HCT-15) was over 10 µM and the GI50 (HL-60) was > 10 µM (inactive). For the same compound, the GI50 (HOP-92) was > 10 µM (inactive), the GI50 (KM12) was > 10 µM (inactive) and the GI50 (LOX IMVI) was > 10 µM (inactive). For the same compound, the GI50 (Malme-3M) was > 10 µM (inactive), the GI50 (NCI-H460) was > 10 µM (inactive) and the GI50 (OVCAR-4) was > 10 µM (inactive). For the same compound, the GI50 (RXF 393) was > 10 µM (inactive), the GI50 (SF-295) was > 10 µM (inactive) and the GI50 (SK-MEL-2) was > 10 µM (inactive). The GI50 (SK-OV-3) was > 10 µM (inactive), the GI50 (SN12C) was > 10 µM (inactive) and the GI50 (SNB-19) was > 10 µM (inactive). For the same compound, the GI50 (SNB-75) was > 10 µM (inactive) and the GI50 (UO-31) was > 10 µM (inactive).

— ChEMBL document CHEMBL1201862, “PubChem BioAssay data set” (2004)
